Reference: paper PMC10046901, “Molecular Analysis of the Superior Efficacy of a Dual Epidermal Growth Factor Receptor (EGFR)-DNA-Targeting Combi-Molecule in Comparison with Its Putative Prodrugs 6-Mono-Alkylamino- and 6,6-Dialkylaminoquinazoline in a Human Osteosarcoma Xenograft Model” (Cells, 2023)

Assays:
[1] = Body weight / tolerance in xenografted mice; assay type: in vivo, NSG male mice; conditions: 80 mg/kg oral gavage every other day, 10 doses
Procedure: Animal experiments were executed in accordance with a protocol approved by the McGill Institutional Animal Care Committee (McGill University Health Centre Research Institute and McGill University, Montreal, Canada). Xenografts of the tumors were obtained via unilateral and subcutaneous injection (5 × 10^6 cells in 100 µL of a PBS1x solution) into immunodeficient NSG male mice (N = 28; 8 weeks old; weight = 30 g; Charles River, Canada). The mice were maintained at optimal temperature (24 °C) and relative humidity (50%) on a 12/12-light/dark cycle with free access to water and food. The mice were monitored clinically every day; body weights were recorded and tumor volumes were measured with a caliper using the formula 4/3 π (length/2) (width/2)^2 every other day. Once tumors reached 68 mm^3, the mice were randomly divided into 4 groups: 1 was treated with ZR2002 (N = 7), another was treated with JS84 (N = 7), another was treated with JS61 (N = 7) and the last was treated with a vehicle (N = 7). The mice were treated every other day for 20 days, receiving a total of 10 doses via oral gavage of 200 µL of a ZR2002, JS61 or JS84 solution at a dose of 80 mg/kg body weight or the vehicle (control group). The drugs were dissolved in a solution of 25% of alcohol (Greenfield, Toronto, ON, Canada), 25% of Cremophor (Sigma-Aldrich, St. Louis, MO, USA) and 50% of 0.9% NaCl (Sigma-Aldrich, St. Louis, MO, USA). The vehicle solution used the same mixture without any drug.

[2] = tested on: ɣ-H2AX phosphorylation; experiment: P-H2AX in tumor tissue (immunohistochemistry, Western blot); assay type: in vivo, human; conditions: tumors 3 h after last dose, 80 mg/kg, N = 4
Procedure: (§1) In order to study the drug pharmacokinetics, 1 last dose (the 11th dose) was administered 3 h prior to sacrifice and after a break of 5 days from the previous drug administration.
(§2) At the end of the study, the mice were sacrificed, and the plasma and tumors were collected. The plasma was stored at −80 °C, and the tumor tissues were transversely cut into 2 parts: 1 was immediately frozen in liquid nitrogen and stored at −80 °C for Western blots and LC-MS analysis; the other was fixed in 4% paraformaldehyde and used for histology.
(§3) The tumors were fixed for 36 h in 4% paraformaldehyde, transferred to 70% EtOH and paraffin-embedded. Sections 4 µm thick were deparaffinized, rehydrated and incubated for 20 min at 37 °C with anti-P-EGFR (1–100, ab40815, Abcam, Cambridge, UK) or anti-P-H2AX (1–100, sc-517348, Santa Cruz Biotechnology, Dallas, TX, USA), followed by secondary Ab incubation with OmniMap anti-Rb HRP (760–4311, Roche, Basel, Switzerland) at room temperature for 16 min, followed by the detection kit ChromoMap Kit (760–4304, Roche, Basel, Switzerland), and the slides were then counterstained with hematoxylin, dehydrated, cleared and cover-slipped. The slides were digitally scanned using an Aperio scanner scope XT.
(§4) The tumor tissue samples were smashed with liquid nitrogen into a mortar, and the tumor powders were transferred to cold RIPA 1x buffer with an anti-protease and anti-phosphatase inhibitor cocktail (Roche, Basel, Switzerland) in ice for 1 h and sonicated. After centrifugation, the proteins were quantified and mixed in Laemmli buffer (Sigma-Aldrich, St. Louis, MO, USA), maintaining the same concentration.
(§5) Cell lysates or tissue lysates were loaded onto 4–20% SDS-PAGE gels (mini-protean TGx stain-free, Bio-Rad, Hercules, CA, USA) and transferred to PVDF membranes that were pre-wetted with methanol. […] The quantification of the immunoblots was performed on digitalized images using ImageLab Software 6.1 (Bio-Rad, Hercules, CA, USA). […]

[3] = tested on: Saos-2; experiment: cells; assay type: cell-based, human; conditions: for IC50: Homo sapiens, SAOS-2, 120 h, read-out: IC50 growth inhibition
[4] = biological target: T1, EGFR phosphorylation of tyrosine (Tyr) 1068 (Homo sapiens, UniProt P00533); experiment: P-EGFR in tumor tissue (immunohistochemistry, Western blot); assay type: in vivo; conditions: tumors 3 h after last dose, 80 mg/kg, N = 4
T1 construct: Western blotting in tumor samples obtained from animals treated with ZR2002, JS61, JS84 or the vehicle; from tissue; host or cells: Saos-2 xenograft tumours grown subcutaneously in NSG mice
T1 sequence (P00533 25-1210): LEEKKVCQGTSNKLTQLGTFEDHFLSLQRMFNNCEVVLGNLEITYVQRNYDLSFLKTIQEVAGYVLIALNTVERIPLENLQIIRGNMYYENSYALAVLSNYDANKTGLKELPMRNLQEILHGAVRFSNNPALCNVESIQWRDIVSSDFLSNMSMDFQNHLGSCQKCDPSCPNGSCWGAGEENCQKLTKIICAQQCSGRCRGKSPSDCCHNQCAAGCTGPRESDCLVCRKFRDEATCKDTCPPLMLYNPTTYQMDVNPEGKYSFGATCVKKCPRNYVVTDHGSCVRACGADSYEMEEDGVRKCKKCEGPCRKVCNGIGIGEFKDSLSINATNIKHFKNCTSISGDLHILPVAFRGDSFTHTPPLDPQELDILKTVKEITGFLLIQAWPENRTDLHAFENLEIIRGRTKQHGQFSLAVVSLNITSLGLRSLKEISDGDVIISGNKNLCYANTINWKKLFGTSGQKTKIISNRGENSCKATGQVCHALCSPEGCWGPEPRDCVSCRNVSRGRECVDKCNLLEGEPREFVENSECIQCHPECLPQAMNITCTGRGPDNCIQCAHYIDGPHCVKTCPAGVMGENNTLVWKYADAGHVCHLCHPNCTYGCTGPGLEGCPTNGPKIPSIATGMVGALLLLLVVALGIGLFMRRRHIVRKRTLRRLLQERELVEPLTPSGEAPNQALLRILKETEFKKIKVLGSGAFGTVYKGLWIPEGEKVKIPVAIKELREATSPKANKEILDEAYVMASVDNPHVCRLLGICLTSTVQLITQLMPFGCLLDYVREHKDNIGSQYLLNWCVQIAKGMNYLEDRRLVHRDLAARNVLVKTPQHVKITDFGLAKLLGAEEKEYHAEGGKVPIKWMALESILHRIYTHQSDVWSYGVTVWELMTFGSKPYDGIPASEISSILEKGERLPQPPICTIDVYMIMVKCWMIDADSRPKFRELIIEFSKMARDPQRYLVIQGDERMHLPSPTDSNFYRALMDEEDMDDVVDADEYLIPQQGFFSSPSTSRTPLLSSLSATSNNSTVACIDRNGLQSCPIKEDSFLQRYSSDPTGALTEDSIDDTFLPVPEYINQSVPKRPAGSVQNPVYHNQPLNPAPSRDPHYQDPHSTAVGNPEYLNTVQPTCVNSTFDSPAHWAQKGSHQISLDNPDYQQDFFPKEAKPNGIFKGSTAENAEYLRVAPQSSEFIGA
Procedure: as §1, §2, §3, §4, §5

[5] = tested on: U2-OS; experiment: cells; assay type: cell-based; conditions: Homo sapiens, U2OS, 120 h, read-out: IC50 growth inhibition
[6] = tested on: MG-63; experiment: cells; assay type: cell-based; conditions: Homo sapiens, MG-63, 120 h, read-out: IC50 growth inhibition
[7] = tested on: MNNG/HOS; experiment: cells; assay type: cell-based; conditions: 120 h, read-out: IC50 growth inhibition
[8] = tested on: KHOS/NP; experiment: cells; assay type: cell-based; conditions: Homo sapiens, 120 h, read-out: IC50 growth inhibition

Row | Structure (SMILES) | tolerance / body weight throughout treatment [1] | ɣ-H2AX phosphorylation in tumors vs control [2] | IC50 [3] | EGFR phosphorylation of Tyr 1068 in tumors vs vehicle [4] | IC50 [5] | IC50 [6] | IC50 [7] | IC50 [8] | fold more potent than JS84 [3]
1 | ClCCN(CCCl)c1ccc2ncnc(Nc3cccc(Br)c3)c2c1 [JS61] | no significant weight loss | low levels of H2AX phosphorylation | 1.59 ± 0.1 µM | detectable EGFR phosphorylation | 1.39 ± 0.02 µM | 12.5 ± 0.61 µM | 5.86 ± 0.15 µM | 6.83 ± 0.5 µM | 
2 | CN(CCCl)c1ccc2ncnc(Nc3cccc(Br)c3)c2c1 [JS84] | no significant weight loss | low levels of H2AX phosphorylation | 0.25 ± 0.04 µM | detectable EGFR phosphorylation | 0.18 ± 0.03 µM | 5.04 ± 0.98 µM | 0.88 ± 0.43 µM | 1.38 ± 0.3 µM | 
3 | ClCCNc1ccc2ncnc(Nc3cccc(Br)c3)c2c1 [ZR2002] | no significant weight loss | enhanced in comparison with the control, even if it was not statistically significant | 0.08 ± 0.01 µM | reduced | 0.08 ± 0.01 µM | 0.45 ± 0.08 µM | 0.31 ± 0.09 µM | 0.19 ± 0.03 µM | 7 fold
